Results on two molecules are retold here after patent US12492196B2, “Thienyloxazolones and analogues” (Bayer Aktiengesellschaft, priority 2019, dated 2025).

A short description of data set [1]: Log P by HPLC on reversed phase columns (EEC directive 79/831 Annex V.A8). As to conditions: reversed phase HPLC columns, method [a]: LC-UV, acidic range, 0.1% formic acid in water and acetonitrile as eluent. The class given is physicochemical. The method, then:
In the above table, measurement of Log P values was performed according to EEC directive 79/831 Annex V.A8 by HPLC (High Performance Liquid Chromatography) on reversed phase columns with the following methods: • [^a] Log P value is determined by measurement of LC-UV, in an acidic range, with 0.1% formic acid in water and acetonitrile as eluent (linear gradient from 10% acetonitrile to 95% acetonitrile). • [^b] Log P value is determined by measurement of LC-UV, in a neutral range, with 0.001 molar ammonium acetate solution in water and acetonitrile as eluent (linear gradient from 10% acetonitrile to 95% acetonitrile). • [^c] Log P value is determined by measurement of LC-UV, in an acidic range, with 0.1% phosphoric acid and acetonitrile as eluent (linear gradient from 10% acetonitrile to 95% acetonitrile).
If more than one Log P value is available within the same method, all the values are given and separated by “+”.
Calibration was done with straight-chain alkan2-ones (with 3 to 16 carbon atoms) with known Log P values (measurement of Log P values using retention times with linear interpolation between successive alkanones). Lambda-max-values were determined using UV-spectra from 200 nm to 400 nm and the peak values of the chromatographic signals.

The test system of data set [2] is salicylate responsive promoter sequence of the PR1 (pathogenesis-related protein I) gene (AT2G14610). Nature of the data set: Induction of defense gene expression in Arabidopsis thaliana (PR1 promoter-GFP reporter plants). The format is in vivo. As to conditions: 72 h, 3rd day after spraying, mock treated leaves set as 1.00, read-out: relative fluorescence value. How it is done:
Arabidopsis thaliana reporter plants containing the coding sequence of a green fluorescent protein (GFP) linked to the salicylate responsive promoter sequence of the PR1 (pathogenesis-related protein I) gene (AT2G14610) were grown for five days and then sprayed with compounds. On the 3rd day after spraying, plant fluorescence was assessed with a MacroFluo instrument from Leica Microsystems (Wetzlar, Germany). Fluorescences were quantified with the Meta-Morph Microscopy Automation & Image Analysis Software (Molecular Devices, Sunnyvale, Calif., United States).
Background fluorescence in mock treated leaves was set as 1.00.

Data set [3] concerns Colletotrichum lindemuthianum. In words: Colletotrichum lindemuthianum in vitro cell test. The format is cell-based. As to conditions: 144 h, 20 ppm of active ingredient, 6 days incubation, read-out: efficacy (direct activity, inhibition of fungal growth). How it is done: Solvent: DMSO Culture medium: 14.6 g anhydrous D-glucose (VWR), 7.1 g Mycological Peptone (Oxoid), 1.4 g granulated Yeast Extract (Merck), QSP 1 liter Inoculum: spores suspension Fungicides were solubilized in DMSO and the solution used to prepare the required range of concentrations. The final concentration of DMSO used in the assay was ≤1%. A spore suspension of C. lindemuthianum was prepared and diluted to the desired spore density. Fungicides were evaluated for their ability to inhibit spores germination and mycelium growth in liquid culture assay. The compounds were added in the desired concentration to the culture medium with spores. After 6 days incubation, fungi-toxicity of compounds was determined by spectrometric measurement of mycelium growth. Inhibition of fungal growth was determined by comparing the absorbance values in wells containing the fungicides with the absorbance in control wells without fungicides.

The subject of data set [4] is Xanthomonas campestris pv. campestris. Nature of the data set: Xanthomonas campestris pv. campestris in vitro cell test. The class given is cell-based. As to conditions: 20 ppm of active ingredient, 24 h incubation, read-out: efficacy (direct activity, inhibition of bacteria growth). The method, then: Solvent: DMSO Culture medium: LB broth medium (Luria Broth Miller) Sigma Inoculum: bacteria suspension Compounds were solubilized in DMSO and the solution used to prepare the required range of concentrations. The final concentration of DMSO used in the assay was ≤1%. Inoculum was prepared from a pre-culture of bacteria grown in liquid medium and diluted to the desired optical density (OD). Compounds were evaluated for their ability to inhibit bacteria growth in liquid culture assay. The compounds were added in the desired concentrations to culture medium containing the bacteria suspension. After 24 h of incubation, the efficacy of compounds was determined by spectrometric measurement of bacteria growth. Inhibition was determined by comparing the absorbance values in wells containing the compounds with the absorbance in control wells without active ingredients.

Data set [5] concerns Colletotrichum lindemuthianum. Nature of the data set: In vivo preventive test on Colletotrichum lindemuthianum (Antrachnose on bean). To be noted: Colletotrichum lindemuthianum, 144 h, 500 ppm of active ingredient; bean; evaluated 6 days after inoculation; read-out: efficacy. How it is done: The tested active ingredients were prepared by homogenization in a mixture of acetone/Dimethyl sulfoxide/Tween®, and then diluted with water to obtain the desired active material concentration. The young plants of bean were treated by spraying the active ingredient prepared as described above. Control plants were treated only with an aqueous solution of acetone/Dimethyl sulfoxide/Tween®.
After 72 hours, the plants were contaminated by spraying the leaves with an aqueous suspension of Colletotrichum lindemuthianum spores. The contaminated bean plants were incubated for 24 hours at 20° C. and at 100% relative humidity and then for 5 days at 20° C. and at 90% relative humidity.
The test was evaluated 6 days after the inoculation. 0% means an efficacy which corresponds to that of the control plants while an efficacy of 100% means that no disease was observed.
Compound CMP1 was tested in an in vivo preventive test on Colletotrichum lindemuthianum (Antrachnose on bean) in the same conditions as described in Example D.

In another data set the test system is Peronospora parasitica. In words: In vivo preventive test on Peronospora parasitica (crucifer downy mildew). As to conditions: Hyaloperonospora parasitica, 120 h; 125 ppm of active ingredient; cabbage; evaluated 5 days after inoculation; read-out: efficacy. The method, then:
(§1) The tested active ingredients were prepared by homogenization in a mixture of acetone/Dimethyl sulfoxide/Tween®, and then diluted with water to obtain the desired active material concentration.
(§2) The young plants of cabbage were treated by spraying the active ingredient prepared as described above. Control plants were treated only with an aqueous solution of acetone/Dimethyl sulfoxide/Tween®.
After 72 hours, the plants were contaminated by spraying the leaves with an aqueous suspension of Peronospora parasitica spores. The contaminated cabbage plants were incubated for 5 days at 20° C. and at 100% relative humidity.
The test was evaluated 5 days after the inoculation. 0% means an efficacy which corresponds to that of the control plants while an efficacy of 100% means that no disease was observed.

Data set [6] relates to Xanthomonas campestris pv. campestris. Nature of the data set: In vivo preventive test on Xanthomonas campestris pv. campestris (black rot on cabbage). As to conditions: Xanthomonas campestris, cabbage, evaluated 8 or 10 days after inoculation, read-out: efficacy; for pest or weed control at 31 ppm: 31 ppm of active ingredient; for pest or weed control at 125 ppm: 125 ppm of active ingredient. The method, then: as §1, §2
After 72 hours, the plants were contaminated by spraying the leaves with an aqueous bacteria suspension of Xanthomonas campestris pv. campestris. The contaminated cabbage plants were incubated for 8 or 10 days at 27° C. at 95% relative humidity.
The test was evaluated 8 or 10 days after the inoculation. 0% means an efficacy which corresponds to that of the control plants while an efficacy of 100% means that no disease was observed.
Compound CMP1 was tested in an in vivo preventive test on Xanthomonas campestris pv. campestris (black rot on cabbage) in the same conditions as described in Example F.

Another data set concerns Uromyces appendiculatus. In words: In vivo preventive test on Uromyces appendiculatus (bean rust). As to conditions: Uromyces appendiculatus, 240 h, bean, evaluated 10 days after inoculation, read-out: efficacy; for pest or weed control at 125 ppm: 125 ppm of active ingredient; for pest or weed control at 500 ppm: 500 ppm of active ingredient. How it is done: as §1
The young plants of bean were treated by spraying the active ingredient prepared as described above.
Control plants were treated only with an aqueous solution of acetone/Dimethyl sulfoxide/Tween®.
After 72 hours, the plants were contaminated by spraying the leaves with an aqueous suspension of Uromyces appendiculatus spores. The contaminated bean plants were incubated for 24 hours at 20° C. and at 100% relative humidity and then for 9 days at 20° C. and at 70-80% relative humidity.
The test was evaluated 10 days after the inoculation. 0% means an efficacy which corresponds to that of the control plants while an efficacy of 100% means that no disease was observed.
Compound CMP1 was tested in an in vivo preventive test on Uromyces appendiculatus (bean rust) in the same conditions as described in Example G.

Molecules are shown by their SMILES. Some results are limits rather than exact numbers.

The chromatographic logP is lipophilicity estimated from chromatographic retention. For orientation: inhibition means how much of the control response was suppressed. In data set [1], `Cc1c(C2=NC3(CC3)C(=O)O2)sc(Cl)c1Br` [I.11] displayed a chromatographic logP of 4.39. The fold induction at 75 ppm in data set [2] (75 ppm of compound) is > 2. Besides, the inhibition at 20 ppm in data set [3] and in data set [4] was ≤ 30% in each case. The pest or weed control at 500 ppm (in data set [5]; with Uromyces appendiculatus) was 90 to 100% throughout. The pest or weed control at 125 ppm (in the data set on Peronospora parasitica; in data set [6]; in the data set with Uromyces appendiculatus) was 90 to 100% throughout. Further, the pest or weed control at 31 ppm lay in the range of 70 to 79% in data set [6] and 80 to 89% with Uromyces appendiculatus (31 ppm of active ingredient).
In data set [1], `Cc1c(C2=NC3(CC3)C(=O)O2)sc(Br)c1Cl` [I.12] registered a chromatographic logP of 4.32. Besides, the fold induction at 300 ppm in data set [2] (300 ppm) is > 2. The inhibition at 20 ppm in data set [3] and in data set [4] was ≤ 30% in each case. The pest or weed control at 500 ppm in data set [5] lay within 80 to 89%; with Uromyces appendiculatus, 90 to 100%. For the same molecule, the pest or weed control at 125 ppm (in the data set with Peronospora parasitica; in data set [6]; in the data set with Uromyces appendiculatus) was 90 to 100% throughout. The pest or weed control at 31 ppm in data set [6] lay in the range of 70 to 79%.
